Assay results: patent US20080312241A1, “Cicletanine and PKC inhibitors in the treatment of pulmonary and cardiac disorders” (Gilead Sciences, Inc., priority 2007, published 2008)

How the values were obtained:
[1] = system: WHO class II pulmonary hypertension patients; test: Oral cicletanine 50 mg daily in WHO class II pulmonary hypertension patients; assay type: in vivo, human
Experimental: When dosed orally once daily at 50 mg daily, improvements in functional status as measured by improved 12 minute walking distance were observed.
Another embodiment comprises the use of 50 mg oral daily doses of racemic cicletanine for treatment of Class II Pulmonary Hypertension, resulting in improved walking distance values.

[2] = system: patient with idiopathic pulmonary arterial hypertension; test: Human case (Example 1): oral once daily cicletanine in a patient with idiopathic pulmonary arterial hypertension (Class I); assay type: in vivo; settings: for 6-minute walking distance: less than 30 meters immediately prior to initiation; for levels of N-terminal pro-B-type natriuretic peptide: 4409 immediately prior to therapy
Experimental: A successful clinical trial of one of the embodiments comprised use of racemic cicletanine with the dosage initiated at 50 mg daily and titrated as tolerated to 150 mg daily in a patient with Class I Pulmonary Hypertension.
A patient with idiopathic pulmonary arterial hypertension, despite having been for some time on high doses of all three classes of approved pulmonary hypertension drugs (endothelin receptor antagonist, prostacyclin, and PDE5 inhibitor), was in heart failure and deteriorating rapidly. The patient had finally been stabilized in the intensive care unit with continuously inhaled nitric oxide. Cicletanine therapy was inititiated—oral once daily, titrating from 50 mg to 150 mg/day over three days—day 1 at 50 mg, day 2 at 100 mg, day 3 and thereafter at 150 mg. Within three days from initiation of cicletanine therapy, the patient was weaned off nitric oxide and released from the intensive care unit; they were home within 5 days of initiation of cicletanine treatment. The patient has been on the cicletanine therapy for four and a half months.
The patient has manifested a significant improvement in 6-minute walking distance, which was less than 30 meters immediately prior to cicletanine initiation, and was over 200 meters after one month of cicletanine therapy and was over 400 meters from the second month of cicletanine therapy onward.
Immediately prior to cicletanine therapy the marker was at 4409; within a few days of cicletanine therapy biomarker levels had fallen to less than 2000, and have stayed near 2000 for approximately four months.
The patient, formerly bedridden, is now able to perform housework and take regular exercise.

[3] = system: Class III Pulmonary Hypertension; test: Oral cicletanine 50 mg daily in Class III pulmonary hypertension (associated with left-sided heart failure); assay type: in vivo, human
Experimental: Yet another embodiment comprises the use of 50 mg oral daily doses of racemic cicletanine for treatment of Class III Pulmonary Hypertension, resulting in improved NYHA functional status.

[4] = system: nitric oxide in vascular tissue; test: Nitric oxide levels in vascular tissue
[5] = system: human subject with heart failure; test: Oral cicletanine 150 mg daily in a human subject with heart failure; assay type: in vivo; settings: oral 150 mg daily
Experimental: Natriuretic peptide level, a marker of heart failure is improved by oral administration of 150 mg of Cicletanine daily to a human subject with heart failure.

[6] = Tolerance and systemic blood pressure effects of cicletanine in patients; assay type: in vivo, human
Experimental: We have unexpectedly found good tolerance of Cicletanine in some patient populations at doses up to 400 mg. […] This is particularly effective by use of means to reduce or modulate the magnitude of the kaliuretic, natriuretic and diuretic effects of Cicletanine. As part of aspects of the present invention, and as described below, we have also invented several means of accomplishing this objective.
In accordance of the other embodiments of the present invention, an oral therapeutic formulation is disclosed wherein sufficient cicletanine is contained to improve pulmonary hemodynamics without excessive lowering of systemic blood pressure. Excessive reduction of systemic blood pressure has been a limiting side effect in many agents potentially useful for treatment of pulmonary hypertension. […] Use of appropriate delivery or other mechanisms to optimize blood levels of individual isomers will allow even higher dosing without adverse impacts on systemic blood pressures.
In accordance with some embodiments of the present invention, an oral formulation is disclosed, comprising a therapeutically effective amount of cicletanine alone or in combination with a second agent such that the overall formulation improves pulmonary hemodynamics without inappropriately lowering systemic blood pressure. […]

[7] = 50 mg daily titrated to 150 mg daily, patient with Class I Pulmonary Hypertension

## Cc1ncc2c(c1O)COC2c1ccc(Cl)cc1 (racemic) [racemic cicletanine]
[1]; 50 mg oral daily doses, Class II Pulmonary Hypertension
  walking distance values: improved
[2]; [7]
  increase in walking distance: more than 12 fold
  natriuretic peptide serum levels: substantial reductions
[3]; 50 mg oral daily doses, Class III Pulmonary Hypertension
  NYHA functional status: improved

## Cc1ncc2c(c1O)COC2c1ccc(Cl)cc1 (single isomer, unassigned; (-)) [(−) cicletanine]
[4]; compared with (+) cicletanine
  nitric oxide enhancing effect, (−) versus (+) cicletanine: more prominent

## Cc1ncc2c(c1O)COC2c1ccc(Cl)cc1 (racemic) [cicletanine]
[4]
  tachyphylaxis to its own nitric oxide effects: avoids tachyphylaxis
[4]; persistent across concentrations corresponding to human doses from 1 mg daily to several thousand milligrams daily
  levels of nitric oxide in vascular tissue: increased levels
[1]; oral once daily 50 mg, WHO class II patients
  12 minute walking distance (functional status): improved
[2]; after one month of cicletanine therapy (150 mg/day oral)
  6-minute walking distance: over 200 meters
[2]; for approximately four months of therapy
  levels of N-terminal pro-B-type natriuretic peptide: ~2000
[2]; formerly bedridden, now able to perform housework and take regular exercise
  quality of life: improved significantly
[2]; from the second month of cicletanine therapy onward
  6-minute walking distance: over 400 meters
[2]; titrating from 50 mg to 150 mg/day
  time from initiation of treatment until home: ≤ 5 days
[2]; titrating from 50 mg to 150 mg/day over three days
  time from initiation of therapy until weaned off nitric oxide and released from the intensive care unit: three
[2]; within a few days of cicletanine therapy
  levels of N-terminal pro-B-type natriuretic peptide: less than 2000
[3]; pulmonary hypertension associated with left-sided heart failure
  hemodynamic and clinical change from baseline: favorable, long-term hemodynamic and clinical improvements
[5]
  Natriuretic peptide level (marker of heart failure): improved
[6]; human, in vivo
  systemic blood pressure: tends not to lower
[6]; some patient populations
  doses with good tolerance: up to 400 mg
